Each block holds one compound with its values, some of them ahead of it.
Legend:
Format in all cases: physicochemical
[1] = solubility in water at room temperature; details: for Biopharmaceutics Classification System class: classified from low water solubility; for solubility: water, 24 °C, 22-26° C.
[2] = Particle Size Distribution (Malvern MasterSizer, laser diffraction)
Description: The mean particle size distribution is preferably obtained by laser diffraction. During a laser diffraction measurement a laser beam passes through a dispersed particulate sample and the angular variation in intensity of the scattered light is measured. Large particles scatter light at small angles relative to the laser beam and small particles scatter light at large angles. The angular scattering intensity data is then analyzed to calculate the size of the particles that created the scattering pattern using the Mie theory of light scattering. The particle size is reported as a volume equivalent sphere diameter. The folded optical design in the Mastersizer 3000 (from Malvern Panalytical), which was in particular used for the measurements provides a particle size measurement range from 10 nm up to 3.5 mm using a single optical measurement path. The Mastersizer 3000 uses a sequential combination of measurements with red and blue light sources to measure across the entire particle size range.
In some embodiments, the PSD (Particle Size Distribution) of the pharmaceutically active agent was measured with a Malvern MasterSizer 2000 or 3000 (in water as dispersion medium, stirrer speed 1500 rpm, Mie presentation) to give the following results (table 11). […] Some of the grinded batches are reported with the full PSD profile in FIG. 5: […]

[3] = impurity profile by HPLC prior and after gamma irradiation
[4] = FIG. 5 lower illustration, micronized sample, jet mill
[5] = FIG. 5 middle illustration, manual grinded sample
[6] = FIG. 5 upper illustration, manual grinded sample
[7] = Gamma irradiated at 49.6 KGy under dry ice

Biopharmaceutics Classification System class [1]: BCS class II
solubility [1]: < 1000 µg/mL
Structure (SMILES): O=C(NCc1cccc(S(F)(F)(F)(F)F)c1)[C@H]1C[C@@H]2CC[C@H]1C2 (racemic) [Compound A, (1SR,2SR,4RS)-N-(3-(pentafluoro-λ6-sulfanyl)benzyl)bicyclo[2.2.1]heptane-2-carboxamide]

d10 [2, 4]: 3.4 microns
d50 [2, 4]: 12.4 microns
d90 [2, 4]: 26.3 microns
d10 [2, 5]: 6.5 microns
d50 [2, 5]: 32 microns
d90 [2, 5]: 72 microns
d10 [2, 6]: 4.4 microns
d50 [2, 6]: 18 microns
d90 [2, 6]: 44 microns
PSD of the active ingredient in the non-aqueous gel composition ([2]; in the gel versus after grinding): remained unchanged
*Imp. 8. rel.tR = 0.95 ([3]; Gamma irradiated at 49.6 KGy): 3.29 Area %
Imp. 1. rel.tR = 0.22 ([3]; Gamma irradiated at 49.6 KGy): 0.11 Area %
Imp. 2. rel.tR = 0.37 ([3]; Gamma irradiated at 49.6 KGy): 0.11 Area %
Imp. 3. rel.tR = 0.48 ([3]; Gamma irradiated at 49.6 KGy): 0.24 Area %
Imp. 4. rel.tR = 0.52 ([3]; Gamma irradiated at 49.6 KGy): 0.12 Area %
Imp. 5. rel.tR = 0.54 ([3]; Gamma irradiated at 49.6 KGy): 0.08 Area %
Imp. 6. rel.tR = 0.58 ([3]; Gamma irradiated at 49.6 KGy): 0.14 Area %
Imp. 7. rel.tR = 0.71 ([3]; Gamma irradiated at 49.6 KGy): 0.39 Area %
Imp. 9. rel.tR = 1.27 ([3]; Gamma irradiated at 49.6 KGy): 0.32 Area %
Imp. 10. rel.tR = 1.80 ([3]; Gamma irradiated at 49.6 KGy): 0.06 Area %
Sum of impurities ([3]; Gamma irradiated at 49.6 KGy): 4.86 Area %
impurity Increase compared to initial ([3]; Gamma irradiated at 49.6 KGy): +1.25 Area %
*Imp. 8. rel.tR = 0.95 [3, 7]: 3.35 Area %
Imp. 1. rel.tR = 0.22 [3, 7]: 0.23 Area %
Imp. 2. rel.tR = 0.37 [3, 7]: 0.03 Area %
Imp. 3. rel.tR = 0.48 [3, 7]: 0.12 Area %
Imp. 4. rel.tR = 0.52 [3, 7]: 0.12 Area %
Imp. 5. rel.tR = 0.54 [3, 7]: 0.05 Area %
Imp. 6. rel.tR = 0.58 [3, 7]: 0.15 Area %
Imp. 7. rel.tR = 0.71 [3, 7]: 0.34 Area %
Imp. 9. rel.tR = 1.27 [3, 7]: 0.20 Area %
Sum of impurities [3, 7]: 4.59 Area %
impurity Increase compared to initial [3, 7]: +0.98 Area %
*Imp. 8. rel.tR = 0.95 ([3]; Initial API): 3.48 Area %
Imp. 3. rel.tR = 0.48 ([3]; Initial API): 0.13 Area %
Imp. 4. rel.tR = 0.52 ([3]; Initial API): <0.05 Area %
Imp. 7. rel.tR = 0.71 ([3]; Initial API): <0.05 Area %
Sum of impurities ([3]; Initial API): 3.61 Area %
effect of gamma irradiation on the quality of the active ingredient ([3]; standard conditions, dry ice used for cooling): only minor effects
Biopharmaceutics Classification System class [1]: BCS class II
solubility [1]: < 1000 µg/mL
Structure (SMILES): O=C(NCc1cccc(S(F)(F)(F)(F)F)c1)[C@H]1C[C@@H]2CC[C@H]1C2 [Compound B, (1S,2S,4R)-N-(3-(pentafluoro-λ6-sulfaneyl)benzyl)bicyclo[2.2.1]heptane-2-carboxamide]

— US20240009149A1, “NON-AQUEOUS GEL COMPOSITION” (Acousia Therapeutics GmbH, priority 2020, published 2024)
